“And” between values parts separate entries of the source, which are not always exact repeats. Identical values can stand only once.
Key:
Format in all cases: in vivo, human
[1] = Phase I study: plasma pharmacokinetics of orally administered Compound 1; conditions: for Tmax / half-life / AUC(0-inf) / AUC(0-t) / Cmax: human, plasma, oral
Source text: The study was designed as a multicenter, open-label Phase 1 study of orally administered Compound 1 in participants with R/R AML or participants with R/R intermediate- to high-risk MDS. […] Additional cohorts for participants with R/R intermediate- to high-risk MDS following hypomethylating agents or other AML cohorts may be added at a later time.
Similar dosing may be used in the dose expansion part of the study. […] Additional intensive PK testing is collected for any participants undergoing intra-patient dose escalation.
At the conclusion of the 900 mg QD cohort, subjects were enrolled in cohorts for BID dosing, starting with the 300 mg BID dosing.
Subjects were treated with Compound 1 QD as described in Example 2.
Subjects were treated with Compound 1 QD or BID dosing as described in Example 2 and blood samples were taken from subjects and analyzed as described in Example 3. Tables 16 and 17 show pharmacokinetic analyses for QD dosing for 100 mg, 175 mg, 275 mg, 350 mg, 400 mg and 900 mg cohorts and BID dosing for 300 mg and 350 mg cohorts. Abbreviations in Table 16 and Table 17: AR=Day 4 AUC0-24/Day 1 AUC0-24, NR=not reported; NA=not available. […] FIG. 9 and FIG. 10 show AUC for day 1 and day 4 of dosing with doses between 350-900 mg QD compared with 350 mg BID.

[2] = Phase I study: safety, adverse events and visual symptoms
Protocol: Similar dosing may be used in the dose expansion part of the study. BID dosing may be also tested depending on initial PK assessments. Participants were evaluated regularly for safety assessments including physical examinations and laboratory testing. Bone marrow aspirates and/or biopsies are performed at regular intervals, including for assessment of tumor response as per 2017 European LeukemiaNet (ELN) response criteria for AML or 2006 revised International Working Group (IWG) response criteria for MDS. Peripheral blood samples are collected in Cycle 1 for intensive PK testing and PD biomarker assessments. Additional intensive PK testing is collected for any participants undergoing intra-patient dose escalation.

Activated Caspase 3 = Activated Caspase 3 biomarker in patient blood samples; conditions: cohorts 4 and 5; one patient
Protocol: Two biomarkers were assessed in patients from cohorts 4 and 5. K48-Ub (ubiquitin) and Activated Caspase 3 biomarkers were analyzed from 5 patient blood samples.

For `Cc1cc2c(C(N)=O)cccc2n1-c1nc2c(c(NCc3ccccc3)n1)CCCN2` [Compound 1, 1-(4-(benzylamino)-5,6,7,8-tetrahydropyrido[2,3-d]pyrimidin-2-yl)-2-methyl-1H-indole-4-carboxamide], the Tmax ([1]; 350 mg, 350 mg QD, Day 1, Mean) was 3.2 h, the half-life ([1]; 350 mg, 350 mg QD, Day 1, Mean) was 4.48 h and the AUC(0-inf) ([1]; 350 mg, 350 mg QD, Day 4, Mean) was 8570 ng·h/mL and 20.8 µM·h. For the same compound, the AUC(0-t) ([1]; 350 mg, 350 mg QD, Day 4, Mean) was 8440 ng·h/mL and 20.4 µM·h, the Cmax ([1]; 350 mg, 350 mg QD, Day 4, Mean) was 834 ng/mL and 2.02 µM and the Tmax ([1]; 350 mg, 350 mg QD, Day 4, Mean) was 4 h. For the same compound, the half-life ([1]; 350 mg, 350 mg QD, Day 4, Mean) was 7.55 h, the AUC(0-inf) ([1]; 450 mg, 450 mg QD, Day 1, Mean) was 8860 ng·h/mL and 21.5 µM·h and the AUC(0-t) ([1]; 450 mg, 450 mg QD, Day 1, Mean) was 8340 ng·h/mL and 20.2 µM·h. The Cmax ([1]; 450 mg, 450 mg QD, Day 1, Mean) was 895 ng/mL and 2.17 µM, the Tmax ([1]; 450 mg, 450 mg QD, Day 1, Mean) was 3 h and the half-life ([1]; 450 mg, 450 mg QD, Day 1, Mean) was 6.05 h. The AUC(0-inf) ([1]; 450 mg, 450 mg QD, Day 4, Mean) was 15900 ng·h/mL and 38.4 µM·h, the AUC(0-t) ([1]; 450 mg, 450 mg QD, Day 4, Mean) was 14500 ng·h/mL and the Cmax ([1]; 450 mg, 450 mg QD, Day 4, Mean) was 1350 ng/mL and 3.28 µM. For the same compound, the Tmax ([1]; 450 mg, 450 mg QD, Day 4, Mean) was 4 h, the half-life ([1]; 450 mg, 450 mg QD, Day 4, Mean) was 9.62 h and the AUC(0-inf) ([1]; 600 mg, 600 mg QD, Day 1, Mean) was 6500 ng·h/mL and 15.7 µM·h. For the same compound, the AUC(0-t) ([1]; 600 mg, 600 mg QD, Day 1, Mean) was 5710 ng·h/mL and 13.8 µM·h, the Cmax ([1]; 600 mg, 600 mg QD, Day 1, Mean) was 799 ng/mL and 1.93 µM and the Tmax ([1]; 600 mg, 600 mg QD, Day 1, Mean) was 3.6 h. For the same compound, the half-life ([1]; 600 mg, 600 mg QD, Day 1, Mean) was 5.94 h, the AUC(0-inf) ([1]; 600 mg, 600 mg QD, Day 4, Mean) was 18200 ng·h/mL and 44 µM·h and the AUC(0-t) ([1]; 600 mg, 600 mg QD, Day 4, Mean) was 17200 ng·h/mL and 41.7 µM·h. The Cmax ([1]; 600 mg, 600 mg QD, Day 4, Mean) was 1960 ng/mL and 4.75 µM, the Tmax ([1]; 600 mg, 600 mg QD, Day 4, Mean) was 3.4 h and the half-life ([1]; 600 mg, 600 mg QD, Day 4, Mean) was 9.77 h. The AUC(0-inf) ([1]; 750 mg, 750 mg QD, Day 1, Mean) was 6160 ng·h/mL and 14.9 µM·h, the AUC(0-t) ([1]; 750 mg, 750 mg QD, Day 1, Mean) was 5960 ng·h/mL and 14.4 µM·h and the Cmax ([1]; 750 mg, 750 mg QD, Day 1, Mean) was 796 ng/mL and 1.93 µM. For the same compound, the Tmax ([1]; 750 mg, 750 mg QD, Day 1, Mean) was 3.33 h, the half-life ([1]; 750 mg, 750 mg QD, Day 1, Mean) was 4.49 h and the AUC(0-inf) ([1]; 750 mg, 750 mg QD, Day 4, Mean) was 13200 ng·h/mL and 32.1 µM·h. For the same compound, the AUC(0-t) ([1]; 750 mg, 750 mg QD, Day 4, Mean) was 12900 ng·h/mL and 31.3 µM·h, the Cmax ([1]; 750 mg, 750 mg QD, Day 4, Mean) was 2260 ng/mL and 5.48 µM and the Tmax ([1]; 750 mg, 750 mg QD, Day 4, Mean) was 2.5 h. For the same compound, the half-life ([1]; 750 mg, 750 mg QD, Day 4, Mean) was 6.67 h, the AUC(0-inf) ([1]; 900 mg, 900 mg QD, Day 1, Mean) was 14000 ng·h/mL and 33.9 µM·h and the AUC(0-t) ([1]; 900 mg, 900 mg QD, Day 1, Mean) was 12300 ng·h/mL and 29.8 µM·h. For the same compound, the Cmax ([1]; 900 mg, 900 mg QD, Day 1, Mean) was 1550 ng/mL and 3.76 µM, the Tmax ([1]; 900 mg, 900 mg QD, Day 1, Mean) was 2.5 h and the half-life ([1]; 900 mg, 900 mg QD, Day 1, Mean) was 5.71 h. The AUC(0-inf) ([1]; 900 mg, 900 mg QD, Day 4, Mean) was 27000 ng·h/mL and 65.3 µM·h, the AUC(0-t) ([1]; 900 mg, 900 mg QD, Day 4, Mean) was 26700 ng·h/mL and 64.6 µM·h and the Cmax ([1]; 900 mg, 900 mg QD, Day 4, Mean) was 3220 ng/mL and 7.8 µM. For the same compound, the Tmax ([1]; 900 mg, 900 mg QD, Day 4, Mean) was 3.33 h, the half-life ([1]; 900 mg, 900 mg QD, Day 4, Mean) was 6.47 h and the Cmax ([1]; 175 mg QD, Day 1, Mean) was 1540 nM. The AUC(0-t) ([1]; 450 mg QD, Day 4, Mean) was 35.2 µM·h, the “exposures compared with CB-5083” value ([1]; vs CB-5083 at greater than 200 mg, FIG. 4) was “greater than dosing CB-5083 at greater than 200 mg” and the adverse events ([2]; cohorts dosed 25 mg to 450 mg QD) was “No adverse events were observed”. The “visual adverse events at plasma exposure equivalent to CB-5083” value ([2]; highest doses) was “no lasting symptoms”, the “symptoms of visual impairment” value ([2]; lower dose cohorts) was “No symptoms of visual impairment” and the “visual adverse events at plasma exposure equivalent to CB-5083” value ([2]; lower doses) was “no symptoms of visual impairment or other visual adverse events”. For the same compound, the visual symptoms ([2]; two patients in cohort X) was “low-grade visual symptoms on the day of dosing that did not persist” and the “Activated Caspase 3, fold increase” value (Activated Caspase 3) was 9 fold.
